Source: PubChem BioAssay AID1259334 (Broad Institute, 2017)
Active and inactive are the calls of the source. Rule as the data show it: active = AC50 below about 11 µM.

Assay: TNFa signaling inhibitors in B cell line, dose response, counter-screen (AID 1259334);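 also: cells stimulated with TNFa after compound preincubation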
Conditions: B cell line, TNFa signaling counterscreen reporter, active compounds read low

N#C[C@@H]1[C@@H](c2ccccc2-c2ccccc2)[C@@H](CO)N1C(=O)NC1CCCC1
max activity (at 1.1 µM): 20.9% (inactive)

CCc1cnc(N2[C@H](C#N)[C@@H](c3ccccc3C3=CCCC3)[C@@H]2CO)s1
max activity (at 10 µM): 9.74% (inactive)

Cc1noc(C)c1NC(=O)N(C)C[C@@H]1OCCCC[C@@H](C)Oc2ccc(NC(=O)Nc3ccc(C(F)(F)F)cc3)cc2C(=O)N([C@H](C)CO)C[C@H]1C
max activity (at 1.1 µM): 17% (inactive)

C[C@@H]1CCCCO[C@@H](CN(C)S(=O)(=O)c2ccc(Cl)cc2)[C@H](C)CN([C@H](C)CO)C(=O)c2cc(NC(=O)Nc3ccc(C(F)(F)F)cc3)ccc2O1
max activity (at 1.1 µM): 17% (inactive)

C[C@]12CC[C@H](O)C[C@H]1CC[C@@H]1[C@@H]2CC[C@]2(C)[C@@H](c3ccc(=O)oc3)CC[C@]12O
max activity (at 0.12 µM): 7.82% (inactive)

Cc1ccc(-c2cc(C(=O)N3CCCC(C(F)(F)F)C3)c3ccccc3n2)o1 (stereo unspecified)
max activity (at 3.5 µM): 21.4% (inactive)

COc1ccc(CN2CC3(CN(C(=O)Cc4ccccc4)C3)c3c([nH]c4cc(OC)ccc34)[C@H]2CO)cc1
max activity (at 1.1 µM): 10.3% (inactive)

COc1ccc(CN2CC3(CN(S(=O)(=O)c4ccc(C)cc4)C3)c3c([nH]c4cc(OC)ccc34)[C@H]2CO)cc1
max activity (at 0.042 µM): 14.8% (inactive)

Cc1ccc(-c2cc(C(=O)N3CC(C)OC(C)C3)c3ccccc3n2)o1 (stereo unspecified)
max activity (at 1.1 µM): 10.3% (inactive)

COc1cccc(S(=O)(=O)N(C)C[C@@H]2OCc3ccccc3-c3c(n(C)c4ccccc34)C(=O)N([C@H](C)CO)C[C@H]2C)c1
max activity (at 0.0135 µM): 14.6% (inactive)

C[C@@H]1CN([C@@H](C)CO)C(=O)Cc2cc(NS(=O)(=O)c3ccccc3)ccc2O[C@H]1CN(C)Cc1ccc(Cl)c(Cl)c1
max activity (at 0.0135 µM): 16% (inactive)

CCCCC1C(=O)NC(=S)N(C)C1=O (stereo unspecified)
max activity (at 1.1 µM): -7.17% (inactive)

OC(CCN1CCCCC1)c1ccc(-c2ccccc2)cc1 (stereo unspecified)
max activity (at 10 µM): 32.8% (inactive)

COc1ccc(S(=O)(=O)Nc2ccc3c(c2)C(=O)N([C@@H](C)CO)C[C@@H](C)[C@@H](CN(C)Cc2ccc(C(F)(F)F)cc2)OCCCC[C@H](C)O3)cc1
max activity (at 3.5 µM): -16.5% (inactive)

CCOC(=O)c1cc2c(ccn2C)n1Cc1ccc(C#N)cc1
max activity (at 10 µM): 20.1% (inactive)

CC(C)NC(=O)N1CC(=O)N2[C@H](CO)[C@@H](c3ccc(/C=C/c4ccccc4)cc3)[C@H]2C1
max activity (at 0.38 µM): -8.8% (inactive)

O=C(C[C@@H]1CC[C@H]2[C@@H](COC[C@@H](O)CN2Cc2cc(F)ccc2F)O1)NCc1ccc(Oc2ccccc2)cc1
max activity (at 3.5 µM): -19.8% (inactive)

CCCNC(=O)N1[C@H](CO)[C@H](c2ccc(-c3cccc(OC)c3)cc2)[C@@H]1C#N
max activity (at 1.1 µM): 18% (inactive)

COCCn1c(C)cc(C(=O)COC(=O)c2ccc(Br)o2)c1C
max activity (at 3.5 µM): -9.22% (inactive)

O=C(CNCCO)N1N=C(c2cccs2)CC1c1cccs1 (stereo unspecified)
max activity (at 3.5 µM): -16% (inactive)

COc1ccc(S(=O)(=O)N(C)C[C@H]2Oc3ccc(NC(=O)Nc4ccc(C(F)(F)F)cc4)cc3C(=O)N([C@@H](C)CO)C[C@H]2C)cc1
max activity (at 0.042 µM): 15.2% (inactive)

N#Cc1cccc(-c2ccc([C@@H]3[C@H](CO)N4CCCCN(C(=O)Nc5cccc(F)c5)C[C@@H]34)cc2)c1
max activity (at 0.38 µM): -15% (inactive)

O=S(=O)(c1cccc2cnccc12)N1CCNCC1
max activity (at 0.042 µM): -11.3% (inactive)

COc1cccc(NC(=O)N2CC(=O)N3[C@H](CO)[C@@H](c4ccc(C#CCC5CCCC5)cc4)[C@H]3C2)c1
max activity (at 0.12 µM): 16.8% (inactive)

NS(=O)(=O)c1cc2c(cc1C(F)(F)F)NC(Cc1ccccc1)NS2(=O)=O (stereo unspecified)
max activity (at 0.0046 µM): 6.69% (inactive)

Cc1ccccc1-c1ccc(C2[C@@H]3CN(C(=O)Nc4cccc(F)c4)C[C@H]2N3)cc1 (stereo partly specified)
max activity (at 0.0135 µM): -14.6% (inactive)

Cc1ccc(C2(C)NC(=O)N(CC(=O)Nc3cccnc3Cl)C2=O)cc1 (stereo unspecified)
max activity (at 0.12 µM): -17.9% (inactive)

C[C@H]1CCCCO[C@H](CN(C)Cc2ccc(C(F)(F)F)cc2)[C@@H](C)CN([C@@H](C)CO)C(=O)c2cc(NC(=O)Nc3cccc4ccccc34)ccc2O1
max activity (at 0.0046 µM): 7.77% (inactive)

COc1cccc(OC)c1OCCNCC1COc2ccccc2O1 (stereo unspecified)
max activity (at 0.0135 µM): 14.5% (inactive)

N#C[C@@H]1[C@@H](c2ccccc2-c2ccc(F)cc2)[C@H](CO)N1C(=O)NC1CCCCC1
max activity (at 1.2 µM): 18.3% (inactive)

CC(=O)Nc1nc2nc(-c3ccccc3)cc(-c3ccccc3)n2n1
max activity (at 0.0135 µM): 11.6% (inactive)

COc1ccc(-c2cnc3c(c2)C(=O)N([C@H](C)CO)C[C@@H](C)[C@@H](CN(C)C(=O)Nc2c(C)noc2C)O3)cc1
max activity (at 1.1 µM): 22.7% (inactive)

C[C@@H]1CN([C@@H](C)CO)C(=O)c2c(c3ccccc3n2C)-c2ccccc2CO[C@H]1CN(C)Cc1cccc(C(=O)Nc2ccccc2N)c1
max activity (at 0.0135 µM): 9.96% (inactive)

CC(=O)Nc1ccc(S(=O)(=O)c2ccc(N)cc2)cc1
max activity (at 0.042 µM): 6.36% (inactive)

c1ccc(CCSc2nccn2-c2ccccc2)cc1
max activity (at 0.38 µM): 38% (inactive)

N=C(N)c1ccc(OCCCCCOc2ccc(C(=N)N)cc2)cc1
max activity (at 1.1 µM): 17.9% (inactive)
